# Measurements as given in patent publication US20050163835A1, “Pharmaceutical formulation of iressa comprising a water-soluble cellulose derivative” (AstraZeneca AB, priority 2002, published 2005).
# Assays:
# [1] = pH-dependent aqueous solubility of the Agent; format: physicochemical; details: free-base form
# [2] = pH shift dissolution (precipitation) test; format: physicochemical
# Procedure: The formulations described in the examples above were dissoluted in media comprising 500 ml 0.07N HCl (approximately pH 1.5) and sodium chloride (0.2% w/v) for one hour at 37° C. (paddle speed 100 rpm). A 5 ml sample was taken at 60 minutes and the media replaced.
# 10 ml of a 2.5M KH2PO4/16.72% (w/v) NaOH solution was then added to shift the pH to 6.5. 5ml samples were then removed with a plastic syringe at 2, 5, 15, 30, 45 and 60 minutes after pH adjustment and media replaced after every sampling time point. Each sample was centrifuged (14,000 rpm) at ambient temperature for 15 minutes and then analysed by HPLC using the following conditions:
smiles,measurement,setting,value
"COc1cc2ncnc(Nc3ccc(F)c(Cl)c3)c2cc1OCCCN1CCOCC1 [Agent, 4-(3′-chloro-4′-fluoroanilino)-7-methoxy-6-(3-morpholinopropoxy)quinazoline]",solubility in aqueous media,[1]; above pH 7,practically insoluble
same,aqueous solvent required to dissolve 1 g of Agent,[1]; pH 6,≥ 10000 mL
same,% Agent in solution at 2 mins after pH adjustment to pH 6.5,"[2]; 2 mins after shift from pH 1.5 to pH 6.5, HPLC of centrifuged sample",6.5%
same,% Agent in solution at 5 mins after pH adjustment to pH 6.5,"[2]; 5 mins after shift from pH 1.5 to pH 6.5, HPLC of centrifuged sample",6.9%
same,% Agent in solution after 60 mins in acidic media (~pH 1.5),"[2]; 500 ml 0.07N HCl, 0.2% w/v NaCl, 37° C., before pH shift, HPLC",102.6%
